# Target: MT1 melatonin receptor (Oryctolagus cuniculus, UniProt G1U149)
# Type: cell-based
# MT1 melatonin receptor, sequence (G1U149 1-312): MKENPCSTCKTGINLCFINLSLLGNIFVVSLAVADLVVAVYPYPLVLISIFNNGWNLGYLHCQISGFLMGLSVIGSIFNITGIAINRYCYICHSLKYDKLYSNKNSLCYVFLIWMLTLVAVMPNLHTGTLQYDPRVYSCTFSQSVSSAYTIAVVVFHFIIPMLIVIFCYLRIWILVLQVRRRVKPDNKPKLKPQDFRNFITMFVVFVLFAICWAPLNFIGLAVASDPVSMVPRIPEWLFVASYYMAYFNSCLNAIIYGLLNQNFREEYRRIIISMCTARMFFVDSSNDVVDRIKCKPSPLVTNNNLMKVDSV
structure (smiles),measurement,value
COc1ccc2[nH]cc(CCNC(C)=O)c2c1 [Melatonin],EC50,4 ± 1 nM

# Reference: paper PMC3748964 (Regulatory peptides, 2013)
